biological target: T1, human DGAT2 (hDGAT2) (Homo sapiens, UniProt Q96PD7); test: DGAT2 Enzymatic Activity Assay; type: biochemical; conditions: membrane prep of Sf-9 cells expressing hDGAT2; 13C18-triolein product by LC/MS/MS; 25 μM diolein, 5 μM 13C oleoyl-CoA, rt
T1 construct: made in house; host or cells: Sf-9 insect cells (baculovirus), membrane fraction
T1 sequence (Q96PD7 1-388): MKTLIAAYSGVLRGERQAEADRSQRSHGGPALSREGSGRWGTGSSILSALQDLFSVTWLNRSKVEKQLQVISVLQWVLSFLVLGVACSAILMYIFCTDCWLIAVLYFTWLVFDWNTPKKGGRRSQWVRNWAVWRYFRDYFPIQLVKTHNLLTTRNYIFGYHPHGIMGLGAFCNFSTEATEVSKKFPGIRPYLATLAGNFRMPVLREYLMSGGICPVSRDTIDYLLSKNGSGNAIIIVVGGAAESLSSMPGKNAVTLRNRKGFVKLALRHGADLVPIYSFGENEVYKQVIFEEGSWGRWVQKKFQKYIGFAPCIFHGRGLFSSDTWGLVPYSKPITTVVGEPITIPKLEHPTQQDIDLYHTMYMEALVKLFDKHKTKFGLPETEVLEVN
Method in brief: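 At room temperature, DGAT2 activity in baculovirus-infected Sf-9 membrane preps (human enzyme, untagged) is measured as formation of ^13C18-triolein. Product is extracted and measured by positive-mode LC/MS/MS, with the ratio to spiked ^13C21-triolein giving inhibition and IC50.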

Structure (SMILES)	IC50 [µM]
O=C(N[C@H]1CCCC(F)(F)[C@@H]1O)c1cn2nc(Oc3ncc(Cl)cc3OCC(F)(F)F)ccc2n1 [Example 161, 6-((5-chloro-3-(2,2,2-trifluoroethoxy)pyridin-2-yl)oxy)-N-((1S,2R)-3,3-difluoro-2-hydroxycyclohexyl)imidazo[1,2-b]pyridazine-2-carboxamide]	0.037
CC1(NC(=O)c2cn3nc(Oc4ncc(Cl)cc4OCC(F)(F)F)ccc3n2)CS(=O)(=O)C1 [Example 162, 6-[[5-chloro-3-(2,2,2-trifluoroethoxy)-2-pyridyl]oxy]-N-(3-methyl-1,1-dioxo-thietan-3-yl)imidazo[1,2-b]pyridazine-2-carboxamide]	0.474
CS(=O)(=O)CC1(NC(=O)c2cn3nc(Oc4ncc(Cl)cc4OCC(F)F)ccc3n2)CCC1 [Example 163, 6-[[5-Chloro-3-(2,2-difluoroethoxy)-2-pyridyl]oxy]-N-[1-(methylsulfonylmethyl)cyclobutyl] imidazo[1,2-b]pyridazine-2-carboxamide]	0.207
CC1(NC(=O)c2cn3nc(Oc4nccnc4OCC(F)(F)F)ccc3n2)CCS(=O)(=O)CC1 [Example 165, N-(4-Methyl-1,1-dioxo-thian-4-yl)-6-[3-(2,2,2-trifluoroethoxy)pyrazin-2-yl]oxy-imidazo[1,2-b]pyridazine-2-carboxamide]	0.901
Cc1cc(Oc2ncc(F)cc2OCC(F)F)nn2cc(C(=O)N[C@H]3CCCC(F)(F)[C@@H]3O)nc12 [Example 174, N-((1S,2R)-3,3-difluoro-2-hydroxycyclohexyl)-6-((3-(2,2-difluoroethoxy)-5-fluoropyridin-2-yl)oxy)-8-methylimidazo[1,2-b]pyridazine-2-carboxamide]	0.014
CC1(NC(=O)c2nc3cc(Cl)c(Oc4ncc(Cl)cc4OCC(F)F)nn3c2Cl)CS(=O)(=O)C1 [Example 175, 3,7-dichloro-6-[[5-chloro-3-(2,2-difluoroethoxy)-2-pyridyl]oxy]-N-(3-methyl-1,1-dioxo-thietan-3-yl)imidazo[1,2-b]pyridazine-2-carboxamide]	0.0004
CC1(NC(=O)c2nc3ccc(Oc4ncc(Cl)cc4OCC(F)F)nn3c2Cl)CS(=O)(=O)C1 [Example 176, 3-chloro-6-[[5-chloro-3-(2,2-difluoroethoxy)-2-pyridyl]oxy]-N-(3-methyl-1,1-dioxo-thietan-3-yl)imidazo[1,2-b]pyridazine-2-carboxamide]	0.024
CC1(NC(=O)c2nc3cc(Cl)c(Oc4nccnc4OCC(F)(F)F)nn3c2Cl)CCS(=O)(=O)CC1 [Example 177, 3,7-dichloro-N-(4-methyl-1,1-dioxo-thian-4-yl)-6-[3-(2,2,2-trifluoroethoxy)pyrazin-2-yl]oxy-imidazo[1,2-b]pyridazine-2-carboxamide]	0.391
CC1(NC(=O)c2nc3ccc(Oc4nccnc4OCC(F)(F)F)nn3c2Cl)CCS(=O)(=O)CC1 [Example 178, 3-chloro-N-(4-methyl-1,1-dioxo-thian-4-yl)-6-[3-(2,2,2-trifluoroethoxy)pyrazin-2-yl]oxy-imidazo[1,2-b]pyridazine-2-carboxamide]	4
CC1(NC(=O)c2nc3cc(Cl)c(Oc4ncc(Cl)cc4OCC(F)(F)F)nn3c2Cl)CS(=O)(=O)C1 [Example 179, 3,7-dichloro-6-[[5-chloro-3-(2,2,2-trifluoroethoxy)-2-pyridyl]oxy]-N-(3-methyl-1,1-dioxo-thietan-3-yl)imidazo[1,2-b]pyridazine-2-carboxamide]	0.101
CC1(NC(=O)c2cn3nc(OCc4c(F)cccc4OC(F)F)ccc3n2)CCS(=O)(=O)CC1 [Example 181, 6-[[2-(Difluoromethoxy)-6-fluoro-phenyl]methoxy]-N-(4-methyl-1,1-dioxo-thian-4-yl)imidazo[1,2-b]pyridazine-2-carboxamide]	0.025
CC1(NC(=O)c2cn3nc(OCc4ncc(F)cc4OCC(F)(F)F)ccc3n2)CCS(=O)(=O)CC1 [Example 182, 6-[[5-Fluoro-3-(2,2,2-trifluoroethoxy)-2-pyridyl]methoxy]-N-(4-methyl-1,1-dioxo-thian-4-yl)imidazo[1,2-b]pyridazine-2-carboxamide]	0.011
Cc1cn(C)nc1COc1ccc2nc(C(=O)NC3(C)CCS(=O)(=O)CC3)cn2n1 [Example 183, 6-((1,4-dimethyl-1H-pyrazol-3-yl)methoxy)-N-(4-methyl-1,1-dioxidotetrahydro-2H-thiopyran-4-yl)imidazo[1,2-b]pyridazine-2-carboxamide]	0.808
CCOc1ccccc1Oc1ccc2nc(C(=O)N[C@H]3CCOC3)cn2c1 [Example 184, (S)-6-(2-ethoxyphenoxy)-N-(tetrahydrofuran-3-yl)imidazo[1,2-a]pyridine-2-carboxamide]	6.34

The remaining lines, values ahead:

IC50 [µM]	Structure (SMILES)
0.016	CC1(NC(=O)c2cn3nc(Oc4ncc(F)cc4OCC(F)(F)F)ccc3n2)CCS(=O)(=O)CC1 [Example 164, 6-[[5-Fluoro-3-(2,2,2-trifluoroethoxy)-2-pyridyl]oxy]-N-(4-methyl-1,1-dioxo-thian-4-yl)imidazo[1,2-b]pyridazine-2-carboxamide]
0.0068	Cc1c(C(=O)NC2(C)CCS(=O)(=O)CC2)nc2ccc(Oc3ncc(Cl)cc3OCC(F)F)nn12 [Example 166, 6-((5-Chloro-3-(2,2-difluoroethoxy)pyridin-2-yl)oxy)-3-methyl-N-(4-methyl-1,1-dioxidotetrahydro-2H-thiopyran-4-yl)imidazo[1,2-b]pyridazine-2-carboxamide]
0.011	Cc1c(C(=O)NC2(C)CS(=O)(=O)C2)nc2ccc(Oc3ncc(Cl)cc3OCC(F)F)nn12 [Example 167, 6-((5-chloro-3-(2,2-difluoroethoxy)pyridin-2-yl)oxy)-3-methyl-N-(3-methyl-1,1-dioxidothietan-3-yl)imidazo[1,2-b]pyridazine-2-carboxamide]
0.001	Cc1cc2nc(C(=O)NC3(C)CCS(=O)(=O)CC3)cn2nc1Oc1ncc(Cl)cc1OCC(F)F [Example 168, 6-((5-Chloro-3-(2,2-difluoroethoxy)pyridin-2-yl)oxy)-7-methyl-N-(4-methyl-1,1-dioxidotetrahydro-2H-thiopyran-4-yl)imidazo[1,2-b]pyridazine-2-carboxamide]
0.121	Cc1cc2nc(C(=O)NC3(C)CS(=O)(=O)C3)cn2nc1Oc1ncc(Cl)cc1OCC(F)F [Example 169, 6-[[5-chloro-3-(2,2-difluoroethoxy)-2-pyridyl]oxy]-7-methyl-N-(3-methyl-1,1-dioxo-thietan-3-yl)imidazo[1,2-b]pyridazine-2-carboxamide]
0.015	Cc1cc2nc(C(=O)NC3(C)CCS(=O)(=O)CC3)c(C)n2nc1Oc1ncc(F)cc1OCC(F)(F)F [Example 170, 6-[[5-fluoro-3-(2,2,2-trifluoroethoxy)-2-pyridyl]oxy]-3,7-dimethyl-N-(4-methyl-1,1-dioxo-thian-4-yl)imidazo[1,2-b]pyridazine-2-carboxamide]
0.0013	Cc1cc2nc(C(=O)NC3(C)CCS(=O)(=O)CC3)c(C)n2nc1Oc1ncc(F)cc1OCC(F)F [Example 171, 6-[[3-(2,2-difluoroethoxy)-5-fluoro-2-pyridyl]oxy]-3,7-dimethyl-N-(4-methyl-1,1-dioxo-thian-4-yl)imidazo[1,2-b]pyridazine-2-carboxamide]
0.03	Cc1cc(Oc2ncc(Cl)cc2OCC(F)F)nn2cc(C(=O)NC3(C)CS(=O)(=O)C3)nc12 [Example 172, 6-[[5-chloro-3-(2,2-difluoroethoxy)-2-pyridyl]oxy]-8-methyl-N-(3-methyl-1,1-dioxo-thietan-3-yl)imidazo[1,2-b]pyridazine-2-carboxamide]
0.011	Cc1cc(Oc2ncc(Cl)cc2OCC(F)F)nn2cc(C(=O)NC3(C)CCS(=O)(=O)CC3)nc12 [Example 173, 6-[[5-chloro-3-(2,2-difluoroethoxy)-2-pyridyl]oxy]-8-methyl-N-(4-methyl-1,1-dioxo-thian-4-yl)imidazo[1,2-b]pyridazine-2-carboxamide]
0.053	CC1(NC(=O)c2cn3nc(OCc4ncc(Cl)cc4OCC(F)F)ccc3n2)CCS(=O)(=O)CC1 [Example 180, 6-((5-Chloro-3-(2,2-difluoroethoxy)pyridin-2-yl)methoxy)-N-(4-methyl-1,1-dioxidotetrahydro-2H-thiopyran-4-yl)imidazo[1,2-b]pyridazine-2-carboxamide]
0.033	CC1(NC(=O)c2cn3cc(Oc4ncc(Cl)cc4OCC(F)(F)F)cnc3n2)CCS(=O)(=O)CC1 [Example 186, 6-((5-Chloro-3-(2,2,2-trifluoroethoxy)pyridin-2-yl)oxy)-N-(4-methyl-1,1-dioxidotetrahydro-2H-thiopyran-4-yl)imidazo[1,2-a]pyrimidine-2-carboxamide]

Source: patent US20260176267A1, “PREPARATION OF IMIDAZOPYRIDINE AND IMIDAZOPYRIDAZINE DERIVATIVES AS NOVEL DIACYLGLYCERIDE O-ACYLTRANSFERASE 2 INHIBITORS” (Merck Sharp & Dohme LLC, priority 2022, published 2026)
